ChEMBL document CHEMBL4138080, “Improved synthesis and comparative analysis of the tool properties of new and existing D-ring modified (S)-blebbistatin analogs” (Eur J Med Chem, 2017)
Converted amounts (≈) assume the structure as drawn.

What was measured:
[1] = Photostability of the compound in PBS/MeOH at 20 uM under blue light irradiation at 488 nm assessed as compound degradation after 30 mins by fluorescence spectroscopic analysis; format: physicochemical; settings: buffer, 0.5 h
[2] = Apparent permeability from basolateral to apical side in human Caco2 cells assessed as drug recovery at 10 uM after 40 mins by HPLC-MS/MS analysis; format: ADME, cell-based; settings: Caco-2, read-out: Drug recovery
[3] = Inhibition of rabbit full length skeletal muscle myosin 2 ATPase activity using Pre-formed rabbit skeletal muscle F-actin filaments and ATP incubated for 1 hr by CytoPhos reagent based ATPase assay; design: species or system Oryctolagus cuniculus
[4] = Apparent permeability from basolateral to apical side in human Caco2 cells at 10 uM after 40 mins by HPLC-MS/MS analysis; format: ADME, cell-based; settings: Caco-2
Oryctolagus cuniculus = organism: Oryctolagus cuniculus; assay: Potency index, ratio of (S)-blebbistatin (S)-1 IC50 to compound IC50 for inhibition of rabbit full length skeletal muscle myosin 2 ATPase activity by CytoPhos reagent based ATPase assay
[5] = Photostability of the compound in DMSO/H20 (1:1) solvent assessed as half life for compound degradation at 100 to 600 uM under irradiation at 390 to 470 nm by HPLC analysis; format: physicochemical; settings: DMSO/H2O (1:1)
[6] = Apparent permeability from apical to basolateral side in human Caco2 cells assessed as drug recovery at 10 uM after 60 mins by HPLC-MS/MS analysis; format: ADME, cell-based; settings: Caco-2, read-out: Drug recovery
[7] = Apparent permeability from apical to basolateral side in human Caco2 cells at 10 uM after 60 mins by HPLC-MS/MS analysis; format: ADME, cell-based; settings: Caco-2
[8] = Aqueous solubility at steady-state in pH 7.4 PBS at 200 uM after 24 hrs by HPLC method; format: physicochemical; settings: for solubility at 24 h, 200 µM: PBS, pH 7.4
[9] = Photostability of the compound in DMSO alone solvent assessed as compound degradation at 100 to 600 uM under irradiation at 390 to 470 nm up to 90 mins by HPLC analysis; format: physicochemical; settings: 1.5 h
[10] = Photostability of the compound in DMSO/H20 (1:1) solvent assessed as compound degradation at 100 to 600 uM under irradiation at 390 to 470 nm after mins by HPLC analysis; format: physicochemical; settings: DMSO/H2O (1:1); read-out: Drug degradation

Compound | recovery at 40 min, 10 µM [2] | IC50 [3] | Papp B→A at 40 min, 10 µM [4] | Ratio IC50 (Oryctolagus cuniculus) | half-life at up to 600 µM [5] | recovery at 1 h, 10 µM [6] | Papp A→B at 1 h, 10 µM [7] | solubility at 24 h, 200 µM [8] | further results
Cc1ccc2c(c1)C(=O)[C@]1(O)CCN(c3ccccc3)C1=N2 | 66% | 0.873 to 2.16 µM | 19.2 ×10⁻⁶ cm/s | 1 | 14 min | 66% | 60.5 ×10⁻⁶ cm/s |  | Stability [1]: Stable; solubility ([8]; buffer, pH 7.4, 24 h, 200 µM): 6.18 µM (≈ 1.81 µg/mL); Stability [9]: Stable
Cc1ccc2c(c1)C(=O)[C@]1(O)CCN(c3cccc(N)c3)C1=N2 | 74% |  | 26.2 ×10⁻⁶ cm/s | 0.15 | 13 min | 79% | 62.7 ×10⁻⁶ cm/s | 186 µM (≈ 57.2 µg/mL) | 
Cc1ccc2c(c1)C(=O)[C@]1(O)CCN(c3ccc4cc[nH]c4c3)C1=N2 |  | 7.2 µM |  | 0.12 |  |  |  |  | 
Cc1ccc2c(c1)C(=O)[C@]1(O)CCN(c3ccc(N)cc3)C1=N2 | 82% |  | 31.1 ×10⁻⁶ cm/s | 0.19 | 44 min | 85% | 69.4 ×10⁻⁶ cm/s | > 200 µM | 
CCC(=O)Oc1cccc(N2CC[C@@]3(O)C(=O)c4cc(C)ccc4N=C23)c1 |  | 23.5 µM |  | 0.09 |  |  |  |  | 
C=CCN(CC=C)c1cccc(N2CC[C@@]3(O)C(=O)c4cc(C)ccc4N=C23)c1 |  | > 10.8 µM |  |  |  |  |  |  | 
Cc1ccc2c(c1)C(=O)[C@]1(O)CCN(c3cccc(O)c3)C1=N2 | 70% |  | 17.2 ×10⁻⁶ cm/s | 0.11 | 11 min | 49% | 28.5 ×10⁻⁶ cm/s | 193 µM (≈ 59.5 µg/mL) | 
C=CCOc1ccc(N2CC[C@@]3(O)C(=O)c4cc(C)ccc4N=C23)cc1 | 65% | 0.38 µM | 7.58 ×10⁻⁶ cm/s | 2.3 | 8.8 min | 32% | 29.7 ×10⁻⁶ cm/s | 2.75 µM (≈ 0.958 µg/mL) | 
Cc1ccc2c(c1)C(=O)[C@]1(O)CCN(c3ccc4ccccc4c3)C1=N2 |  | > 40 µM |  | < 0.02 |  |  |  |  | 
C=CC(=O)Nc1cccc(N2CC[C@@]3(O)C(=O)c4cc(C)ccc4N=C23)c1 |  | > 100 µM |  | < 0.02 |  |  |  |  | 
CCC(=O)Nc1cccc(N2CC[C@@]3(O)C(=O)c4cc(C)ccc4N=C23)c1 |  | > 100 µM |  | < 0.02 |  |  |  |  | 
Cc1ccc2c(c1)C(=O)[C@]1(O)CCN(c3cccc(C(=O)O)c3)C1=N2 |  |  |  | < 0.02 |  |  |  |  | 
Cc1ccc2c(c1)C(=O)[C@]1(O)CCN(c3ccc(O)cc3)C1=N2 |  | 5.47 µM |  | 0.16 | 4.7 min |  |  | 82.4 µM (≈ 25.4 µg/mL) | 
Cc1ccc2c(c1)C(=O)[C@]1(O)CCN(c3cccc(C(N)=O)c3)C1=N2 |  |  |  | < 0.02 |  |  |  |  | 
Cc1ccc2c(c1)C(=O)[C@]1(O)CCN(c3cccc(C#N)c3)C1=N2 |  |  |  | 0.04 |  |  |  |  | 
Cc1ccc2c(c1)C(=O)[C@]1(O)CCN(c3ccc([N+](=O)[O-])cc3)C1=N2 | 72% |  | 2.23 ×10⁻⁶ cm/s | 2.5 | > 90 min | 34% | 32.5 ×10⁻⁶ cm/s | 31.7 µM (≈ 10.7 µg/mL) | degraded at up to 600 µM [10]: 33%
C=CCOc1cccc(N2CC[C@@]3(O)C(=O)c4cc(C)ccc4N=C23)c1 |  | 9.41 µM |  | 0.23 | 15 min |  |  | 2.83 µM (≈ 0.986 µg/mL) | 
Cc1ccc2c(c1)C(=O)[C@]1(O)CCN(c3ccc(OCc4ccccc4)cc3)C1=N2 |  | > 40 µM |  | < 0.02 |  |  |  |  | 
Cc1ccc2c(c1)C(=O)[C@]1(O)CCN(c3ccc4c(c3)NCC4)C1=N2 |  | 7.7 µM |  | 0.11 |  |  |  |  | 
C=CC(=O)Oc1cccc(N2CC[C@@]3(O)C(=O)c4cc(C)ccc4N=C23)c1 |  | 57.6 µM |  | 0.04 |  |  |  |  | 
